From ChEMBL document CHEMBL1134000, “Structure elucidation and conformational properties of a novel bioactive clerodane diterpene using a combination of high field NMR spectroscopy, computational analysis and X-ray diffraction” (2001)
≈ marks a conversion by molar mass, not a printed value.

Columns and labels:
Staphylococcus aureus = experiment: Minimum inhibitory concentration against Staphylococcus aureus (ATCC 6538); assay type: functional
[1] = tested on: Staphylococcus epidermidis; experiment: Minimum inhibitory concentration against Staphylococcus epidermidis (ATCC 12228); assay type: functional
Staphylococcus hominis = experiment: Minimum inhibitory concentration against Staphylococcus hominis (ATCC 27844); assay type: functional
Escherichia coli = experiment: Minimum inhibitory concentration against Escherichia coli (ATCC 25922); assay type: functional
Klebsiella pneumoniae = experiment: Minimum inhibitory concentration against Klebsiella pneumoniae (ATCC 13883); assay type: functional
[2] = Minimum inhibitory concentration against Pseudomonas aeruginosa; assay type: functional, […] aeruginosa

| MIC50 (Staphylococcus aureus) | MIC50 [1] | MIC50 (Staphylococcus hominis) | MIC50 (Escherichia coli) | MIC50 (Klebsiella pneumoniae) | MIC50 [2] | SMILES |
| --- | --- | --- | --- | --- | --- | --- |
| 320 µM (≈ 98.7 µg/mL) | 320 µM (≈ 98.7 µg/mL) | 320 µM (≈ 98.7 µg/mL) | – | – | – | C=C[C@](C)(O)CC[C@@H]1[C@@]2(C)CCCC(C)(C)[C@@H]2CC[C@@]1(C)O [SCLAREOL] |
| 2.1 µM (≈ 1.22 µg/mL) | 2.1 µM (≈ 1.22 µg/mL) | 2.1 µM (≈ 1.22 µg/mL) | 0.6 µM (≈ 0.349 µg/mL) | 0.6 µM (≈ 0.349 µg/mL) | – | CN[C@@H]1[C@H](O[C@H]2[C@H](O[C@H]3[C@H](O)[C@@H](O)[C@H](N=C(N)N)[C@@H](O)[C@@H]3N=C(N)N)O[C@@H](C)[C@]2(O)C=O)O[C@@H](CO)[C@H](O)[C@H]1O [STREPTOMYCIN] |
| 1240 µM (≈ 400 µg/mL) | 1240 µM (≈ 400 µg/mL) | 1240 µM (≈ 400 µg/mL) | 930 µM (≈ 300 µg/mL) | 930 µM (≈ 300 µg/mL) | 930 µM (≈ 300 µg/mL) | C[C@@H](CC[C@@]1(C)[C@H](C)CC[C@]2(C)C(CO)=CCC[C@H]12)CC(=O)O |
| 85 µM (≈ 31 µg/mL) | 85 µM (≈ 31 µg/mL) | 85 µM (≈ 31 µg/mL) | 1370 µM (≈ 499 µg/mL) | 1370 µM (≈ 499 µg/mL) | 1370 µM (≈ 499 µg/mL) | CC(=O)OCC1=CCC[C@@H]2[C@@](C)(CC[C@H](C)CC(=O)O)[C@H](C)CC[C@]12C |
